These compounds were tested against T1, Dihydrofolate reductase (Escherichia coli, UniProt P0ABQ4).
T1 sequence (P0ABQ4 whole entry): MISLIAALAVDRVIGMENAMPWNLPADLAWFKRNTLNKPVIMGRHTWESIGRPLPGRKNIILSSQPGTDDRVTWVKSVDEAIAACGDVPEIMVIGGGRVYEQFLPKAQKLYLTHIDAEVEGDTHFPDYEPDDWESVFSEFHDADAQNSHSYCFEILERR
Description: Negative logarithm of inhibition constant (-log Ki) against Dihydrofolate reductase in Escherichia coli

| SMILES | Ki [nM] |
| --- | --- |
| COc1cc(CC2CN=C(N)N=C2N)ccc1Cc1ccccc1 (stereo unspecified) | 29.5 |
| Cc1cc(CC2CN=C(N)N=C2N)cc(Cl)c1N (stereo unspecified) | 1.35 |
| COCCc1c(OC)cc(CC2CN=C(N)N=C2N)cc1OC (stereo unspecified) | 4.47 |
| NC1=NCC(Cc2cc(I)c(O)c(I)c2)C(N)=N1 (stereo unspecified) | 1.51 |
| COc1ccc(CC2CN=C(N)N=C2N)cc1OS(C)(=O)=O (stereo unspecified) | 15.8 |
| CS(=O)(=O)Oc1ccc(CC2CN=C(N)N=C2N)cc1 (stereo unspecified) | 251 |
| COCCC(=O)c1ccc(CC2CN=C(N)N=C2N)cc1C(=O)CCOC (stereo unspecified) | 60.3 |
| NC1=NCC(Cc2cc(Br)c(N)c(Br)c2)C(N)=N1 (stereo unspecified) | 1.41 |
| COc1ccc(CC2CN=C(N)N=C2N)cc1OCc1ccccc1 (stereo unspecified) | 21.9 |
| NC1=NCC(Cc2ccc3c(c2)OCCO3)C(N)=N1 (stereo unspecified) | 74.1 |
| NC1=NCC(Cc2cc(Cl)c(N)c(Cl)c2)C(N)=N1 (stereo unspecified) | 1.35 |
| CCCOc1cc(CC2CN=C(N)N=C2N)cc(OCCC)c1 (stereo unspecified) | 38.9 |
| NC1=NCC(Cc2ccc(OCc3ccccc3)cc2)C(N)=N1 (stereo unspecified) | 129 |
| COc1cc(CC2CN=C(N)N=C2N)cc(OC)c1C (stereo unspecified) | 2.69 |
| CC(=O)Nc1ccc(CC2CN=C(N)N=C2N)cc1[N+](=O)[O-] (stereo unspecified) | 107 |
| NC1=NCC(Cc2ccc(OC(F)(F)F)cc2)C(N)=N1 (stereo unspecified) | 269 |
| COc1c(C)cc(CC2CN=C(N)N=C2N)cc1C (stereo unspecified) | 18.2 |
| COc1cc(CC2CN=C(N)N=C2N)ccc1O (stereo unspecified) | 28.8 |
| CCCCCCOc1c(OC)cc(CC2CN=C(N)N=C2N)cc1OC (stereo unspecified) | 13.5 |

Further compounds by falling Ki, results first:

| Ki [nM] | SMILES |
| --- | --- |
| 631 | NC1=NCC(Cc2ccc([N+](=O)[O-])cc2)C(N)=N1 (stereo unspecified) |
| 355 | NC1=NCC(Cc2ccc(O)cc2)C(N)=N1 (stereo unspecified) |
| 145 | COc1ccc(CC2CN=C(N)N=C2N)cc1O (stereo unspecified) |
| 138 | CCCCCCOc1cccc(CC2CN=C(N)N=C2N)c1 (stereo unspecified) |
| 120 | CS(=O)(=O)Oc1cccc(CC2CN=C(N)N=C2N)c1 (stereo unspecified) |
| 91.2 | Cc1cc(C)cc(CC2CN=C(N)N=C2N)c1 (stereo unspecified) |
| 69.2 | COCCCCCCCOc1cc(CC2CN=C(N)N=C2N)ccc1OC (stereo unspecified) |
| 63.1 | COCCCCCCCOc1c(OC)cc(CC2CN=C(N)N=C2N)cc1OC (stereo unspecified) |
| 27.5 | Cc1cc(CC2CN=C(N)N=C2N)cc(C)c1O (stereo unspecified) |
| 20.4 | COc1ccc(CC2CN=C(N)N=C2N)cc1C(F)(F)F (stereo unspecified) |
| 17 | COCCOc1ccc(CC2CN=C(N)N=C2N)cc1OC (stereo unspecified) |
| 15.1 | CCc1cc(CC2CN=C(N)N=C2N)cc(CC)c1CC (stereo unspecified) |
| 13.5 | CCCCCCCCOc1c(OC)cc(CC2CN=C(N)N=C2N)cc1OC (stereo unspecified) |
| 11.5 | COc1cc(CC2CN=C(N)N=C2N)ccc1OS(C)(=O)=O (stereo unspecified) |
| 6.61 | COc1cc(CC2CN=C(N)N=C2N)cc(OC)c1Br (stereo unspecified) |
| 3.8 | COc1cc(CC2CN=C(N)N=C2N)cc(OC)c1OCc1ccccc1 (stereo unspecified) |
| 1.51 | COc1c(I)cc(CC2CN=C(N)N=C2N)cc1I (stereo unspecified) |
